Measured values reported in paper PMC9942557, “Bolaamphiphile Analogues of 12-bis-THA Cl2 Are Potent Antimicrobial Therapeutics with Distinct Mechanisms of Action against Bacterial, Mycobacterial, and Fungal Pathogens” (mSphere, 2022).
Read-outs that look alike come from different tables or passages of the source.

How the values were obtained:
[1] = test system: Gram-positive bacteria (avg); test: Selectivity index (toxicity/potency); assay type: cell-based; settings: ratio of average toxicity (HEK293 and HeLa) to average potency
C. albicans 3281 = test: Broth microdilution MIC; assay type: cell-based, Candida albicans; settings: C. albicans 3281
M. smegmatis mc^2 155 = test: Broth microdilution MIC (Middlebrook 7H9); assay type: cell-based, Mycobacterium smegmatis
[2] = test system: EMR Staphylococcus aureus 16 NCTC 13277; test: Broth microdilution MIC; assay type: cell-based
[3] = test system: Acinetobacter baumannii AYE; test: Broth microdilution MIC; assay type: cell-based
[4] = test system: EMR Staphylococcus aureus 15 NCTC 13616; test: Broth microdilution MIC; assay type: cell-based
[5] = test system: VR Enterococcus faecalis NCTC 12201; test: Broth microdilution MIC; assay type: cell-based
[6] = test system: Escherichia coli ATCC 25922; test: Intrahemocoelic G. mellonella infection model; assay type: in vivo, Galleria mellonella; settings: single 10-mg/kg dose 1 h after infection
Procedure: The antimicrobial activities of DQC, CM2, and its analogues Quino-bola, Penta-bola, Hepta-bola, and Octa-bola against Escherichia coli ATCC 25922 were tested in Galleria mellonella larvae. All assays were performed on two separate occasions using a group size of 10 larvae; the larvae were kept in separate petri dishes and in a static incubator at 37°C during the period of the experiment. A suspension of E. coli ATCC 25922 was prepared by transferring two colonies of E. coli ATCC 25922 from a fresh agar plate into PBS and adjusting the absorbance to a McFarland 0.5 standard. The number of CFU per milliliter of this suspension was determined and corresponded to 1 × 10^8 CFU/mL. Larvae were injected beneath the tegument with 10 μL of a 1 × 10^7-CFU/mL bacteria suspension, corresponding to 1 × 10^5 CFU per larva. A 50-μL Hamilton syringe with a G27 needle was used for the injection. […] Ten microliters of stock solution was injected into each larva 1 h after infection (10 mg/kg). Levofloxacin (LVX; 50 μg/mL = 2 mg/kg) and PBS were used as positive and negative controls, respectively. A noninfected PBS injection was included to control for the effects of injection. Survival was monitored over a period of 70 to 72 h. Changes in G. mellonella survival were analyzed by the log rank (Mantel-Cox) method and plotted as Kaplan-Meier survival curves using GraphPad Prism version 7.

Klebsiella pneumoniae M6 = test: Broth microdilution MIC; assay type: cell-based
C. parapsilosis 3209 = test: Broth microdilution MIC; assay type: cell-based
[7] = test system: Pseudomonas aeruginosa NCTC 13437; test: Broth microdilution MIC; assay type: cell-based
Fungi (avg) = test: Selectivity index (toxicity/potency); assay type: cell-based, Candida spp.; settings: ratio of average toxicity (HEK293 and HeLa) to average potency
Description: (§1) TABLE 3 Selectivity indices of bolaamphiphiles | column: Selectivity of^a: / 12-bis-THA Cl2; Selectivity of^a: / Dequalinium; Selectivity of^a: / Quino-bola; Selectivity of^a: / Penta-bola; Selectivity of^a: / Hepta-bola; Selectivity of^a: / Octa-bola; Selectivity of^a: / Octa-C10; Selectivity of^a: / Octa-C8; Selectivity of^a: / Octa-C6

C. parapsilosis = test: Broth microdilution MIC; assay type: cell-based
[8] = test system: Pseudomonas aeruginosa PAO1; test: Broth microdilution MIC; assay type: cell-based
C. glabrata 8018 = test: Broth microdilution MIC; assay type: cell-based; settings: C. glabrata 8018
[9] = test system: Gram-negative bacteria (avg); test: Selectivity index (toxicity/potency); assay type: cell-based; settings: ratio of average toxicity (HEK293 and HeLa) to average potency
Description: as §1

M. tuberculosis Bleupan = test: microbe, parasite or virus in culture; assay type: cell-based, Mycobacterium tuberculosis
[10] = test system: Klebsiella pneumoniae NCTC 13368; test: Broth microdilution MIC; assay type: cell-based
[11] = test system: VR Enterococcus faecium NCTC 12204; test: Broth microdilution MIC; assay type: cell-based
HeLa = test: In vitro toxicity for cell line; assay type: cell-based, human; settings: for EC50: Homo sapiens, read-out: Toxicity (EC50)
Description: as §1, with “2 Toxicity” for “3 Selectivity indices”, “bolaamphiphiles for two cell lines^a” for “bolaamphiphiles”, “Toxicity (EC50 [μg/ml]) of:” for “Selectivity of^a:”

HEK293 = test: In vitro toxicity for cell line; assay type: cell-based, human; settings: for EC50: Homo sapiens
Description: as §1, with “2 Toxicity” for “3 Selectivity indices”, “bolaamphiphiles for two cell lines^a” for “bolaamphiphiles”, “Toxicity (EC50 [μg/ml]) of:” for “Selectivity of^a:”

C. albicans 3179 = test: Broth microdilution MIC; assay type: cell-based, Candida albicans; settings: C. albicans 3179
[12] = test system: Escherichia coli NCTC 12923; test: Broth microdilution MIC; assay type: cell-based
[13] = test system: VS Enterococcus faecalis NCTC 775; test: Broth microdilution MIC; assay type: cell-based
C. tropicalis 8760 = test: Broth microdilution MIC; assay type: cell-based; settings: C. tropicalis 8760
C. auris temp probe = test: Broth microdilution MIC; assay type: cell-based, Candida auris; settings: C. auris temp probe
P. aeruginosa PAO1 = test: Checkerboard synergy assay; assay type: cell-based, Pseudomonas aeruginosa; settings: for MIC: Pseudomonas aeruginosa, read-out: MIC Alone Bolalipid
C. krusei 3876 = test: Broth microdilution MIC; assay type: cell-based
[14] = test system: Acinetobacter baumannii ATCC 17978; test: Broth microdilution MIC; assay type: cell-based
[15] = Candida albicans, read-out: MIC
[16] = Mycolicibacterium smegmatis, MC^2155, read-out: MIC
[17] = Lodderomyces parapsilosis, read-out: MIC
[18] = Nakaseomyces glabratus, read-out: MIC
[19] = Candida tropicalis, read-out: MIC
[20] = Candidozyma auris, read-out: MIC
[21] = Pichia kudriavzevii, read-out: MIC
[22] = average ± standard error from 3 independent repeats

Nc1c2c([n+](CCCCCCCCCCCC[n+]3c4c(c(N)c5ccccc53)CCCCCC4)c3ccccc13)CCCCCC2 [Octa-bola]
Selectivity index [1]: 17.4
MIC (C. albicans 3281; [15]): 0.5 µg/mL
MIC (M. smegmatis mc^2 155; [16]): 0.55 µg/mL
MIC ([2]; NCTC13277, EMR Staphylococcus aureus 16 NCTC 13277, read-out: MIC): 0.125 µg/mL
MIC ([3]; Acinetobacter baumannii AYE, read-out: MIC): 8 µg/mL
MIC ([4]; NCTC13616, EMR Staphylococcus aureus 15 NCTC 13616, read-out: MIC): 0.125 µg/mL
MIC ([5]; NCTC12201, VR Enterococcus faecalis NCTC 12201, read-out: MIC): 1 µg/mL
protection (survival over 72 h) [6]: significantly protective
MIC (Klebsiella pneumoniae M6; read-out: MIC): 16 µg/mL
MIC (C. parapsilosis 3209; [17]): 0.5 µg/mL
MIC ([7]; NCTC13437, read-out: MIC): 32 µg/mL
Selectivity index (Fungi (avg)): 8.30
MIC (C. parapsilosis; [17]): 1 µg/mL
MIC ([8]; read-out: MIC): 32 µg/mL
MIC (C. glabrata 8018; [18]): 0.5 µg/mL
Selectivity index [9]: 0.53
MIC (M. tuberculosis Bleupan; Mycobacterium tuberculosis, read-out: MIC): 0.24 µg/mL
MIC ([10]; NCTC13368, read-out: MIC): 32 µg/mL
MIC ([11]; NCTC12204, VR Enterococcus faecium NCTC 12204, read-out: MIC): 0.5 µg/mL
EC50 (HeLa): 4.5 ± 0.7 µg/mL
EC50 (HEK293; HEK293, read-out: Toxicity (EC50)): 3.8 ± 0.3 µg/mL
MIC (C. albicans 3179; [15]): 0.5 µg/mL
MIC ([12]; NCTC12923, read-out: MIC): 2 µg/mL
MIC ([13]; NCTC775, read-out: MIC): 0.5 µg/mL
MIC (C. tropicalis 8760; [19]): 0.25 µg/mL
MIC (C. auris temp probe; [20]): 1 µg/mL
MIC (P. aeruginosa PAO1): 32 µg/mL
MIC (C. krusei 3876; [21]): 0.5 µg/mL
MIC ([14]; ATCC17978, read-out: MIC): 8 µg/mL

Nc1c2c([n+](CCCCCCCCCCCC[n+]3c4c(c(N)c5ccccc53)CCC4)c3ccccc13)CCC2 [Penta-bola]
MIC (C. albicans 3281): 0.25 µg/mL
MIC (M. smegmatis mc^2 155): 0.10 µg/mL
MIC ([2]; EMR Staphylococcus aureus 16 NCTC 13277): 0.5 µg/mL
MIC ([3]; Acinetobacter baumannii AYE): 32 µg/mL
MIC ([4]; EMR Staphylococcus aureus 15 NCTC 13616): 0.5 µg/mL
MIC ([5]; VR Enterococcus faecalis NCTC 12201): 1 µg/mL
protection (survival over 72 h) [6]: neither Quino-bola nor Penta-bola offered significant protection
MIC (Klebsiella pneumoniae M6): 32 µg/mL
MIC (C. parapsilosis 3209): 1 µg/mL
MIC [7]: >32 µg/mL
MIC (C. parapsilosis): 1 µg/mL
MIC [8]: 32 µg/mL
MIC (C. glabrata 8018): 0.25 µg/mL
MIC (M. tuberculosis Bleupan): 0.19 µg/mL
MIC [10]: 32 µg/mL
MIC ([11]; VR Enterococcus faecium NCTC 12204): 1 µg/mL
Toxicity (EC50) (HeLa; [22]): 9.5 ± 1.7 µg/mL
Toxicity (EC50) (HEK293; HEK293, average ± standard error from 3 independent repeats): 7.9 ± 1.2 µg/mL
MIC (C. albicans 3179): 0.25 µg/mL
MIC [12]: 16 µg/mL
MIC [13]: 4 µg/mL
MIC (C. tropicalis 8760): 0.25 µg/mL
MIC (C. auris temp probe): 2 µg/mL
MIC alone Bolalipid (P. aeruginosa PAO1): 32 µg/mL
MIC (C. krusei 3876): 0.5 µg/mL
MIC [14]: 16 µg/mL

Cc1c(N)c2ccccc2[n+](CCCCCCCCCCCC[n+]2c(C)c(C)c(N)c3ccccc32)c1C [Quino-bola]
Selectivity index [1]: 8.94
MIC (C. albicans 3281; [15]): 0.25 µg/mL
MIC (M. smegmatis mc^2 155; [16]): 0.49 µg/mL
MIC ([2]; Staphylococcus aureus, NCTC13277): 1 µg/mL
MIC ([3]; Acinetobacter baumannii): 32 µg/mL
MIC ([4]; Staphylococcus aureus, NCTC13616): 1 µg/mL
MIC ([5]; Enterococcus faecalis, NCTC12201): 2 µg/mL
protection (survival over 72 h) [6]: neither Quino-bola nor Penta-bola offered significant protection
MIC (Klebsiella pneumoniae M6; read-out: MIC): 32 µg/mL
MIC (C. parapsilosis 3209; [17]): 0.5 to 2 µg/mL
MIC [7]: > 32 µg/mL
Selectivity index (Fungi (avg)): 31.8
MIC (C. parapsilosis; [17]): 2 µg/mL
MIC ([8]; read-out: MIC): > 32 µg/mL
MIC (C. glabrata 8018; [18]): 0.25 µg/mL
Selectivity index [9]: 0.55
MIC [10]: 32 µg/mL
MIC ([11]; Enterococcus faecium, NCTC12204): 2 µg/mL
EC50 (HeLa; [22]): 13.9 ± 9.5 µg/mL
EC50 (HEK293; HEK293, average ± standard error from 3 independent repeats, read-out: Toxicity (EC50)): 13.6 ± 0.6 µg/mL
MIC (C. albicans 3179; [15]): 0.25 µg/mL
MIC ([12]; NCTC12923, read-out: MIC): 8 to 16 µg/mL
MIC ([13]; NCTC775, read-out: MIC): 4 µg/mL
MIC (C. tropicalis 8760; [19]): 0.25 µg/mL
MIC (C. auris temp probe; [20]): 2 µg/mL
MIC (P. aeruginosa PAO1): > 32 µg/mL
MIC (C. krusei 3876; [21]): 1 µg/mL
MIC ([14]; ATCC17978, read-out: MIC): 16 µg/mL
